Assays:
[1] = Pharmacokinetics after intravenous infusion in humans; assay type: in vivo; settings: Human, 30-minute IV Infusion, 2.0 mg (0.9 mg/m^2)
[2] = system: plasma proteins; experiment: Plasma protein binding, summary over species; assay type: in vitro ADME; settings: species not specified
[3] = dog, in vivo, sc
Protocol: Male and female beagle dogs of 9 to 11 months of age for PK characterization were individually housed at the testing facility Approximately 325 g of pelleted food was provided daily. […] Animals were observed twice daily for signs of ill health, morbidity, mortality, injury, and viability, and detailed clinical observations were conducted daily (including urine/fecal examination and hands-on examination). Food was weighed daily, and body weights were recorded at least weekly.
Samples were collected in tubes containing lithium heparin and processed for plasma by centrifugation (10 minutes at 3000 rpm). Supernatant was removed and stored frozen (−70° C.) until processed (BASi, West Lafayette, Ind.). Plasma drug concentration data were used to calculate PK parameters for individual concentration data using noncompartmental PK methods in Watson™ version 7.3.0.01 (Thermo Fisher Scientific, Inc., Waltham, Mass.).

[4] = system: plasma proteins; experiment: Protein binding in human plasma (dialysis); assay type: in vitro ADME; settings: plasma; human, summary over concentrations; read-out: bound to plasma proteins

Structure (SMILES): CO[C@@H]1[C@H](OC(=O)/C=C/c2ccc(OCCN(C)C)cc2)CC[C@]2(CO2)[C@H]1[C@@]1(C)O[C@@H]1CC=C(C)C [beloranib, reference compound]
- kel [1]: 0.120 ± 0.070 h⁻¹
- AUC(0-inf) ([1]; in vivo): 5.82 ± 2.46 ng·h/mL
- clearance ([1]; in vivo): 64.5 mL/min/kg
- half-life ([1]; in vivo): 7.06 ± 2.66 h
- Vd ([1]; in vivo, read-out: Vdss): 25.4 ± 19.2 L/kg

Structure (SMILES): CO[C@@H]1[C@H](OC(=O)N2CC(CCN3CCOCC3)C2)CC[C@]2(CO2)[C@H]1[C@@]1(C)O[C@@H]1CC=C(C)C [Compound A]
- fraction bound to plasma proteins [2]: 0.3 to 0.7
- plasma concentration after the 4-hour timepoint [3]: undetectable
- fraction unbound [4]: 0.65 to 0.75

— US20200030278A1, “PHARMACEUTICAL COMPOSITIONS OF METAP-2 INHIBITORS” (Zafgen, Inc., priority 2017, published 2020)
